From US10604512B2, “3-(1H-indol-2-yl)-1H-indazoles and therapeutic uses thereof” (Samumed, LLC, priority 2015, dated 2020)

Tests used:
Type in all cases: cell-based
[1] = tested on: Wnt activity (Sp5-Luc reporter, TCF/LEF binding sites) in SW480 colon carcinoma cells; experiment: Screening assay for Wnt activity: Sp5-Luc reporter gene assay in stably transduced SW480 colon carcinoma cells; settings: Homo sapiens, overnight incubation, 10-point curve from 10 μM
In short: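 SW480 cells stably transduced with a luciferase reporter driven by an Sp5 promoter of eight TCF/LEF sites were plated at 4,000 cells/well in 1% FBS medium. They were exposed overnight at 37° C to a 10-point 1:3 dilution series from 10 μM (0.1% DMSO). Luminescence was normalized to DMSO for four-parameter EC50, or percent inhibition at 10 μM.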

SW480 colon cancer cells = experiment: Cell viability assay (CellTiter-Blue) in SW480 colon cancer cells; settings: Homo sapiens, 96 h, four days, CellTiter-Blue
In short: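 Four-day viability readout in SW480 cells: compound at 0.0045–10 μM (1:3 series), DMSO controls in eight replicates, CellTiter-Blue fluorescence after ~3 h. Values are regression-derived EC50s, or percent inhibition at 10 μM when EC50 exceeds 10 μM.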

[2] = tested on: Primary human fibroblasts derived from IPF patients (LL29 cells) treated with TGF-β1; experiment: Inhibition of the fibrotic process: αSMA staining in TGF-β1-treated primary human fibroblasts from IPF patients (LL29 cells); settings: Fibroblast, 96 h, % αSMA-positive LL29 cells, TGF-β1 20 ng/mL, 4 days
In short: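 LL29 IPF-patient fibroblasts in 1% FBS stimulated with TGF-β1 (20 ng/mL) and compound (10 μM–1.87 nM, 0.1% DMSO) for 4 days at 37 °C. SYTOX-positive cells excluded; % αSMA-positive cells imaged, normalized to TGF-β1/DMSO wells; EC50 by nonlinear regression, else % inhibition at 10 μM.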

IL-6 = experiment: Inhibition of IL-6 in LPS-stimulated THP-1 human monocyte cells (HTRF); settings: IL-6 inhibition, LPS-stimulated THP-1 cells, HTRF
In short: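 THP-1 cells serum-reduced (1% FBS, 24 h), then 5000 cells/well preincubated 2 h with compound (10-point 1:3 series from 10 μM, 0.1% DMSO) before 500 ng/mL LPS for 22 h at 37 °C. Secreted IL-6 quantified by HTRF 665/620 ratio; DMSO-normalised duplicates fitted to four-parameter EC50; above 10 μM, % inhibition at 10 μM given.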

SMILES	EC50 [1]	EC50 (SW480 colon cancer cells)	EC50 [2]	EC50 (IL-6)
CN(C)CCNc1cc(F)cc(-c2cccc3[nH]c(-c4n[nH]c5ccc(-c6cncc(NC(=O)Cc7ccccc7)c6)cc45)cc23)c1 [Compound 458, N-(5-(3-(4-(3-((2-(Dimethylamino)ethyl)amino)-5-fluorophenyl)-1H-indol-2-yl)-1H-indazol-5-yl)pyridin-3-yl)-2-phenylacetamide]	422 nM	767 nM	1010 nM	354 nM
CN(C)CCNc1cc(F)cc(-c2cccc3[nH]c(-c4n[nH]c5ccc(-c6cncc(NC(=O)c7ccccc7)c6)cc45)cc23)c1 [Compound 459, N-(5-(3-(4-(3-((2-(Dimethylamino)ethyl)amino)-5-fluorophenyl)-1H-indol-2-yl)-1H-indazol-5-yl)pyridin-3-yl)benzamide]	67 nM	212 nM	77 nM	109 nM
CCCC(=O)Nc1cncc(-c2ccc3[nH]nc(-c4cc5c(-c6cc(F)cc(NCCN(C)C)c6)cccc5[nH]4)c3c2)c1 [Compound 465, N-(5-(3-(4-(3-((2-(Dimethylamino)ethyl)amino)-5-fluorophenyl)-1H-indol-2-yl)-1H-indazol-5-yl)pyridin-3-yl)butyramide]	138 nM	310 nM	224 nM	876 nM
CN(C)CCNc1cc(F)cc(-c2cccc3[nH]c(-c4n[nH]c5ccc(-c6cncc(NC(=O)C7CC7)c6)cc45)cc23)c1 [Compound 468, N-(5-(3-(4-(3-((2-(Dimethylamino)ethyl)amino)-5-fluorophenyl)-1H-indol-2-yl)-1H-indazol-5-yl)pyridin-3-yl)cyclopropanecarboxamide]	21 nM	75 nM	174 nM	9 nM
CN(C)CCNc1cc(F)cc(-c2cccc3[nH]c(-c4n[nH]c5ccc(-c6cncc(NC(=O)C7CCC7)c6)cc45)cc23)c1 [Compound 469, N-(5-(3-(4-(3-((2-(Dimethylamino)ethyl)amino)-5-fluorophenyl)-1H-indol-2-yl)-1H-indazol-5-yl)pyridin-3-yl)cyclobutanecarboxamide]	195 nM	287 nM	189 nM	27 nM
CN(C)CCNc1cc(F)cc(-c2cccc3[nH]c(-c4n[nH]c5ccc(-c6cncc(NC(=O)C7CCCC7)c6)cc45)cc23)c1 [Compound 470, N-(5-(3-(4-(3-((2-(Dimethylamino)ethyl)amino)-5-fluorophenyl)-1H-indol-2-yl)-1H-indazol-5-yl)pyridin-3-yl)cyclopentanecarboxamide]	40 nM	166 nM	> 10000 nM	54 nM
CN(C)CCNc1cc(F)cc(-c2cccc3[nH]c(-c4n[nH]c5ccc(-c6cncc(NC(=O)C7CCCCC7)c6)cc45)cc23)c1 [Compound 471, N-(5-(3-(4-(3-((2-(Dimethylamino)ethyl)amino)-5-fluorophenyl)-1H-indol-2-yl)-1H-indazol-5-yl)pyridin-3-yl)cyclohexanecarboxamide]	689 nM	1380 nM	1420 nM	731 nM
CCC(=O)Nc1cncc(-c2ccc3[nH]nc(-c4cc5c(-c6cc(F)cc(CNS(C)(=O)=O)c6)cccc5[nH]4)c3c2)c1 [Compound 477, N-(5-(3-(4-(3-Fluoro-5-(methylsulfonamidomethyl)phenyl)-1H-indol-2-yl)-1H-indazol-5-yl)pyridin-3-yl)propionamide]	135 nM	817 nM	224 nM	595 nM
CS(=O)(=O)NCc1cc(F)cc(-c2cccc3[nH]c(-c4n[nH]c5ccc(-c6cncc(N)c6)cc45)cc23)c1 [Compound 479, N-(3-(2-(5-(5-Aminopyridin-3-yl)-1H-indazol-3-yl)-1H-indol-4-yl)-5-fluorobenzyl)methanesulfonamide]	80 nM	677 nM	134 nM	169 nM
